According to US20080254152A1, “Methods for Reducing the Effects of Stress on Skin Condition” (priority 2003, published 2008):
Where no end group is shown, it is not given here.

Tested on: ICAM-1 expression in HUVECs
Assay: ICAM-1 expression in HUVECs chronically treated with CRH, then PMA
Format: cell-based, Human
Conditions: data not shown
Protocol: Following this, the cells were oxidatively stressed for 24 hours with 1 μM PMA (Sigma P8139).
Receptor antagonists were added to the cells during the pre-treatment period. These included the Glucocorticoid Receptor Antagonist; 2 μM Mifepristone (Sigma M8046) and two CRH receptor antagonists; 200 nM Astressin (Sigma A4933) and 200 nM α-helical CRF peptide antagonist (Sigma C2917).
ICAM-1 protein in each cell lysate was estimated using the Human sICAM-1 DuoSet ELISA kit (R&D Systems DY720) according to the manufacturer's instructions.
The capture antibody was diluted to a final concentration of 4 μg/ml in PBS and 100 μl was used to coat each well of a 96-well microtitre plate overnight at room temperature. The plate was then washed three times with wash buffer (0.05% Tween 20 in PBS). Each well received 300 μl of blocking buffer (1% BSA, 5% sucrose and 0.05% sodium azide in PBS), and the plate was incubated at room temperature for 1 hour before being washed as before. Each cell lysate was then diluted 1/200 in reagent diluent (1% BSA in PBS) and 100 μl added to duplicate wells of the antibody coated plate. Eight ICAM-1 standards were prepared in reagent diluent, at concentrations ranging from 0 to 1000 pg/ml, and duplicate 100 μl standards were added to the appropriate wells on the plate. A separate set of standards was routinely used for each plate. The plate was incubated at room temperature for 2 hours before being washed again. 100 μl of detection antibody, diluted to a final concentration of 100 ng/ml, was added to each well and the plate incubated at room temperature for 2 hours. […] The absorbance of the plates was measured at 450 nm with the correction wavelength set at 570 nm.
A standard curve was plotted of mean absorbance versus ICAM-1 concentration and the line of best fit calculated by regression analysis. The unknown concentration of ICAM-1 in the samples was calculated from this, taking the lysate dilution factor into account.
To normalise for differences in cell number and total protein concentration, the final result was expressed as ng ICAM-1 per mg of total protein. […]

| Substance | Change in ICAM-1 secretion after chronic CRH treatment (1 to 100 nM CRH daily for 5 days, then PMA, vs untreated cells) | Effect on increased induction of ICAM-1 post-oxidative stress (200 nM CRH receptor antagonist during 5-day CRH pre-treatment, then PMA) | Level of ICAM-1 relative to that induced by oxidative stress after pre-treatment with CRH for five days (200 nM CRH receptor antagonist during CRH pre-treatment) |
| --- | --- | --- | --- |
| CRH: Corticotrophin Releasing Hormone, Calbiochem 05-23-0050 (SEEPPISLDLTFHLLREVLEMARAEQLAQQAHSNRKLMEII; ends and bridges not checked; UniProt P06850 154-194, looked up) | significant increase | – | – |
| astressin | – | only partially blocked | approximately half |
